In patent publication US7423149B2, “Substituted n-aryl amidines as selective D1 dopamine receptor antagonists for the treatment of obesity and CNS disorders” (Schering Corporation, priority 2003, dated 2008) one finds Ki data, which are given here for 71 molecules.

Each structure is given as a SMILES string.

The target in the experiment is T1, human Dopamine D1 receptor (Homo sapiens, UniProt P21728).
T1 construct: expressed in transfected cells; host or cells: Ltk- cells (mouse fibroblasts), membrane preparation
T1 sequence (P21728 whole entry): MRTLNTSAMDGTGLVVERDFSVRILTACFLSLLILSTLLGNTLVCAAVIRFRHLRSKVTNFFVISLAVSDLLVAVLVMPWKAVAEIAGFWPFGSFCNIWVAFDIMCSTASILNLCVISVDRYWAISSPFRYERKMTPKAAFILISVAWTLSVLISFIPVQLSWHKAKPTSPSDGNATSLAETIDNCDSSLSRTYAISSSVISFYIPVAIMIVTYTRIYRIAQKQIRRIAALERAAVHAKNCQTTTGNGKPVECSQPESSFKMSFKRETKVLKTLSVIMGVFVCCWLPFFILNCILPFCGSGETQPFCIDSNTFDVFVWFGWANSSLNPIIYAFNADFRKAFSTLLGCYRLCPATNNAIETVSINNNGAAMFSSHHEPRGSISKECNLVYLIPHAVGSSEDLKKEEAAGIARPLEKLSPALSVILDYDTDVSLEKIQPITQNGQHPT
As to the kind of experiment: radioligand binding competition assay, displacement of [3H]SCH 23390 from D1 receptor (Ltk-cells membranes).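 Note: under 5 nM class also requires D2 to D1 selectivity above 500.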 The settings on record: class combines Ki (D1) and, for A and B, D2:D1 selectivity (Ki D2 / Ki D1); read-out: D1 binding and D2:D1 Selectivity. The source says:
Biological Activity: Compounds from this disclosure have been biologically characterized by their ability to displace a known D1-like selective ligand, [3H]SCH 23390 from the human Dopamine D1 receptor, and a known D2-like selective ligand, [3H] Methylspiperone, from the human Dopamine D2 and D4 receptors.
Affinity values (Ki) of compounds at human dopamine receptors were ascertained using radioligand binding competition assays. Cells expressing D1 (Ltk-cells), D2 (long variant, Ltk-cells), D4 (CHO cells) and D5 (GH4C1 cells) receptors were lysed in hypotonic buffer for membrane preparation. Membranes were incubated with various concentrations of test compound and 1 nM [3H] SCH 23390 (D1 and D5) and 0.2 nM [3H] Methylspiperone for (D2 and D4) assays. Non-specific binding was defined as binding in the presence of 10 micromolar of SCH 23390 for D1 and D5 assays and 10 micromolar butaclamol for D2 and D4 assays. Following incubation to equilibrium (1 hour at room temperature), bound radioligand was separated from free by rapid filtration. Bound radioactivity on the dried filters was quantified by liquid scintillation counting.
Selectivity is determined by dividing Ki for D2, D4 or D5 receptors by Ki for D1 receptor.
Background: Displacement assays read how much labelled ligand stays bound in the presence of the test substance.

For `N#Cc1cccc(-c2ccc(/C=C/C(=N)Nc3ccc(Cl)cc3)cc2)c1` [Example 30], the Ki is 10 to 50 nM. The same measure for `N=C(/C=C/c1ccc(-c2ccc3[nH]ccc3c2)cc1)Nc1ccc(Cl)cc1` [Example 21, N-(4-chloro-phenyl)-3-[4-(1H -indol-5-yl)-phenyl]-acrylamidine]: less than 10 nM; for `N=C(/C=C/c1ccc(Cc2cccnc2)cc1)Nc1ccc(O)cc1` [Example 8]: 50 to 10000 nM. Take `N=C(Nc1ccc(Cl)cc1)c1ccc2cc(O)ccc2c1` [Example 106, N-(4-chloro-phenyl)-6-hydroxy-naphthalene-2-carboxamidine]: the Ki was 50 to 10000 nM.

Take `N=C(CCc1ccc(Cc2c[nH]cn2)cc1)Nc1ccc(Cl)cc1` [Example 134]: the Ki lay within 50 to 10000 nM. The same measure for `COc1ccc(/C=C/C(=N)Nc2cccc(C#N)c2)cc1` [Example 91]: 50 to 10000 nM; for `COc1ccc(/C=C/C(=N)Nc2cccc(C)c2)cc1` [Example 17]: 50 to 10000 nM; for `COc1ccccc1C1CCN(c2ccc(/C=C/C(=N)Nc3ccc(Cl)cc3)cc2)CC1` [Example 113]: 50 to 10000 nM. For the molecule `N=C(/C=C/c1ccc(-c2ccsc2)cc1)Nc1ccc(Cl)cc1` [Example 64], the Ki was in the range of 10 to 50 nM. For `COc1cccc(OC)c1/C=C/C(=N)Nc1ccc(Cl)cc1` [Example 27] the value was 50 to 10000 nM; for `CO/N=C(/C)c1ccc(-c2ccc(/C=C/C(=N)Nc3ccc(Cl)cc3)cc2)cc1` [Example 125, N-(4-chloro-phenyl)-3-[4′-(1-methoxyimino-ethyl)-biphenyl-4-yl]-acrylamidine], 50 to 10000 nM. For `COc1ccc(-c2ccc(/C=C/C(=N)Nc3ccc(Cl)cc3)cc2)cc1OC` [Example 107] the value was 50 to 10000 nM. For `CN1CCN(c2ccc(/C=C/C(=N)Nc3ccc(Cl)cc3)c(Cl)c2)CC1` [Example 33] the value was less than 10 nM; for `COc1ccc(/C=C/C(=N)Nc2cccc(C(F)(F)F)c2)cc1` [Example 1], 50 to 10000 nM. On to `N=C(/C=C/c1cc(C(F)(F)F)cc(C(F)(F)F)c1)Nc1ccc(Cl)cc1` [Example 2], for which the Ki lay within 50 to 10000 nM. For `N=C(/C=C/c1ccccc1Cl)Nc1ccc(Cl)cc1` [Example 73] the value was 10 to 50 nM. `N=C(/C=C/c1cccc2ccccc12)Nc1ccc(Cl)cc1` [Example 12]: the Ki lay in the range of 50 to 10000 nM. The same measure for `N=C(/C=C/c1ccc(Cc2ccccn2)cc1)Nc1ccc(Cl)cc1` [Example 19]: 50 to 10000 nM; for `CCN(CC)c1ccc(/C=C/C(=N)Nc2ccc(Cl)cc2)cc1` [Example 38]: 10 to 50 nM; for `N=C(/C=C/c1ccc(-c2cc(F)cc(F)c2)cc1)Nc1ccc(Cl)cc1` [Example 99]: 50 to 10000 nM.

Regarding `COc1ccc(/C=C/C(=N)Nc2cc(F)cc(F)c2)cc1` [Example 55], the Ki lay in the range of 10 to 50 nM.

On to `N=C(/C=C/c1ccc(-c2ccc(C(F)(F)F)cc2)cc1)Nc1ccc(Cl)cc1` [Example 122], for which the Ki lay in the range of 50 to 10000 nM. As for `COc1ccc(NC(=N)/C=C/c2ccc(Cc3cccnc3)cc2)cc1` [Example 121], the Ki was 50 to 10000 nM. For `COc1ccc(/C=C/C(=N)Nc2cccc([N+](=O)[O-])c2)cc1` [Example 82] the value was 50 to 10000 nM. The same measure for `N=C(Nc1ccc(Cl)cc1)c1ccc2cc(N3CCN(Cc4ccccc4)CC3)ccc2c1` [Example 61]: 10 to 50 nM. For `N=C(Nc1ccc(Cl)cc1)c1ccc2nc(N3CCNCC3)ccc2c1` [Example 79] the value was 50 to 10000 nM; for `N=C(/C=C/c1ccc(-c2ccccn2)cc1)Nc1ccc(Cl)cc1` [Example 25], 10 to 50 nM.

Regarding `N=C(/C=C/c1ccc(Cc2cccnc2)cc1)Nc1ccc(Cl)cc1` [Example 48], the Ki lay in the range of 10 to 50 nM. The same measure for `CC(C)N1CCN(c2ccc(/C=C/C(=N)Nc3ccc(Cl)cc3)c(Cl)c2)CC1` [Example 77]: 50 to 10000 nM.

Regarding `Cc1ccc(C)n1-c1ccc(/C=C/C(=N)Nc2ccc(Cl)cc2)cc1` [Example 95], the Ki lay in the range of 50 to 10000 nM. For the molecule `N=C(/C=C/c1ccc(Cc2cccnc2)cc1)Nc1ccc(Cl)c(O)c1` [Example 128], the Ki was in the range of 50 to 10000 nM.

For `N=C(/C=C/c1ccc(-c2ccc(C=O)cc2)cc1)Nc1ccc(Cl)cc1` [Example 44], the Ki was less than 10 nM. For `CN1c2ccccc2Sc2cc(/C=C/C(=N)Nc3ccc(Cl)cc3)ccc21` [Example 50] the value was 10 to 50 nM.

In the case of `N=C(Nc1ccc(Cl)cc1)c1ccc2cc(N3CCNCC3)ccc2c1` [Example 71], the Ki is 10 to 50 nM. As to `C=Cc1ccc(-c2ccc(/C=C/C(=N)Nc3ccc(Cl)cc3)cc2)cc1` [Example 59], the Ki fell in the range of 10 to 50 nM. As to `N=C(/C=C/c1ccc(Cc2cccnc2)cc1)Nc1ccc2c(c1)OCO2` [Example 22], the Ki fell in the range of 50 to 10000 nM.

Take `N=C(/C=C/c1ccc(N2CCN(Cc3ccccc3)CC2)cc1)Nc1ccc(Cl)cc1` [Example 36]: the Ki fell in the range of 10 to 50 nM. The same measure for `CC(CN1CCN(c2ccc(/C=C/C(=N)Nc3ccc(Cl)cc3)c(Cl)c2)CC1)c1ccccc1` (centres unmarked) [Example 45]: 10 to 50 nM; for `CC(=O)c1ccc(-c2ccc(/C=C/C(=N)Nc3ccc(Cl)cc3)cc2)cc1` [Example 49]: 10 to 50 nM; for `N=C(/C=C/c1ccc(-n2ccnc2)cc1)Nc1ccc(Cl)cc1` [Example 88]: 50 to 10000 nM. For `COc1ccc(NC(=N)/C=C/c2ccc(Cc3cccnc3)cc2)cc1Cl` [Example 9], the Ki was 50 to 10000 nM. On to `COc1ccc(/C=C/C(=N)Nc2ccc(C)c([N+](=O)[O-])c2)cc1` [Example 130], for which the Ki fell in the range of 50 to 10000 nM. For `COc1ccc(/C=C/C(=N)Nc2ccc(Cl)cc2)cc1OC` [Example 69] the value was 10 to 50 nM; for `N=C(/C=C/c1ccc(Cl)cc1Cl)Nc1ccc(Cl)cc1` [Example 13], 10 to 50 nM. The same measure for `CCn1c2ccccc2c2cc(/C=C/C(=N)Nc3ccc(Cl)cc3)ccc21` [Example 100]: 50 to 10000 nM; for `COc1ccc(NC(=N)/C=C/c2ccccc2)cc1` [Example 117]: 50 to 10000 nM; for `N=C(Nc1ccc(Cl)cc1)c1ccc2cccc(O)c2n1` [Example 66]: 10 to 50 nM. For `N=C(/C=C/c1ccc(Cl)c(Cl)c1)Nc1ccc(Cl)cc1` [Example 102] the value was 50 to 10000 nM; for `N=C(/C=C/c1ccc2c(c1)OCO2)Nc1ccc(Cl)cc1` [Example 72], 10 to 50 nM; for `N=C(/C=C/c1ccc(CNCc2ccccc2)cc1)Nc1ccc(Cl)cc1` [Example 110], 50 to 10000 nM. As for `N=C(/C=C/c1ccc(Cl)c([N+](=O)[O-])c1)Nc1ccc(Cl)cc1` [Example 3], the Ki lay within 50 to 10000 nM. The same measure for `CC(C)(C)c1ccc(-c2ccc(/C=C/C(=N)Nc3ccc(Cl)cc3)cc2)cc1` [Example 131]: 50 to 10000 nM. The same measure for `CCCCN(CCCC)c1ccc(/C=C/C(=N)Nc2ccc(Cl)cc2)cc1` [Example 115]: 50 to 10000 nM; for `COC(=O)C1CC1CN1CCN(c2ccc(/C=C/C(=N)Nc3ccc(Cl)cc3)c(Cl)c2)CC1` (centres unmarked) [Example 46]: 10 to 50 nM; for `CN1CCN(c2ccc3cc(C(=N)Nc4ccc(Cl)cc4)ccc3c2)CC1` [Example 112]: 50 to 10000 nM. The same measure for `N=C(/C=C/c1ccncc1)Nc1ccc(Cl)cc1` [Example 14]: 50 to 10000 nM. As for `N=C(/C=C/c1ccc(CN2CCOCC2)cc1)Nc1ccc(Cl)cc1` [Example 116], the Ki is 50 to 10000 nM.

`CC(C)(C)c1ccc(/C=C/C(=N)Nc2ccc(Cl)cc2)cc1` [Example 7]: the Ki lay in the range of 10 to 50 nM. For `N=C(/C=C/c1ccc2ccccc2c1)Nc1ccc(Cl)cc1` [Example 78] the value was 50 to 10000 nM; for `COc1ccc(/C=C/C(=N)Nc2ccc(Cl)cc2)cc1Cl` [Example 65], 10 to 50 nM; for `COc1ccc(/C=C/C(=N)Nc2ccc(OC)c(OC)c2)cc1` [Example 129], 50 to 10000 nM. For `N=C(/C=C/c1ccc(OC(F)(F)F)cc1)Nc1ccc(Cl)cc1` [Example 4] the value was 50 to 10000 nM; for `CC1CCCCN1c1ccc(/C=C/C(=N)Nc2ccc(Cl)cc2)c(Cl)c1` (centres unmarked) [Example 20], less than 10 nM. The same measure for `COc1ccc(/C=C\C(=N)Nc2ccc(Cl)cc2)c(F)c1` [Example 85]: 50 to 10000 nM; for `N=C(Nc1ccc(Cl)cc1)c1ccc2cc(N3CCN(C4CCCCC4)CC3)ccc2c1` [Example 97]: 50 to 10000 nM. As for `N=C(/C=C/c1ccc(N2CCCC3CCCCC32)cc1)Nc1ccc(Cl)cc1` (centres unmarked) [Example 126], the Ki was 50 to 10000 nM. The same measure for `N=C(Nc1ccc(Cl)cc1)c1ccc2[nH]ccc2c1` [Example 89]: 50 to 10000 nM; for `N=C(Nc1ccc(Cl)cc1)c1ccc(-c2ccccc2)cc1` [Example 118]: 50 to 10000 nM; for `CCC1CCCCN1c1ccc(/C=C/C(=N)Nc2ccc(Cl)cc2)cc1` (centres unmarked) [Example 60]: 10 to 50 nM. For `COc1cc(N(C)C)ccc1/C=C/C(=N)Nc1ccc(Cl)cc1` [Example 51] the value was 10 to 50 nM; for `N=C(/C=C/c1ccc(N2CCN(C3CCCC(C(F)(F)F)C3)CC2)cc1Cl)Nc1ccc(Cl)cc1` (centres unmarked) [Example 74], 10 to 50 nM.
